Results: patent publication US12662475B2, “Difluorocyclohexyl derivatives as IL-17 modulators” (UCB BIOPHARMA SRL, priority 2020, dated 2026)

Columns and labels:
[1] = molecular target: T1, interaction between IL-17A and soluble IL-17 Receptor A (IL-17RA) (Homo sapiens, UniProt Q16552); assay: IL-17 FRET assay; details: IL-17A binding to IL-17RA
T1 construct: made in house; host or cells: IL-17A-Fc: CHO SXE cells; IL-17RA: Expi HEK293 cells
T1 sequence (Q16552 24-155): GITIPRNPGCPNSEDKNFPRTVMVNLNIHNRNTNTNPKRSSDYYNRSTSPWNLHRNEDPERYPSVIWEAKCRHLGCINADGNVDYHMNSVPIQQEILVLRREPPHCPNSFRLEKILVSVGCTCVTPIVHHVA
Method: The purpose of this assay is to test the ability of compounds to disrupt the interaction between IL-17A and soluble IL-17 Receptor A (IL-17RA). The ability of a compound to inhibit IL-17A binding to IL-17RA is measured in this assay.
An IL-17AA-TEV-Human Fc construct was expressed in a CHO SXE cell system and purified by protein A chromatography and size exclusion. The protein was labelled with an amine reactive AlexaFluor 647 dye (Thermo Fisher #A20006), as per manufacturer's instruction.
Soluble IL-17RA (33-317)-HKH-TEV-Fc was expressed in an Expi HEK293 cell system and purified by protein A chromatography and size exclusion. The Fc tag was cleaved by TEV, producing IL-17RA (33-317)-HKH, and the protein was labelled with amine reactive terbium (Thermo Fisher #PV3581).
In assay buffer [Dulbecco's PBS (Sigma #14190-094), 0.05% P20 (Thermo Scientific #28320), 1 mg/mL BSA (Sigma #A2153-500G)] the following solutions were prepared:
• IL-17A-Fc-AF647 at 5 nM • IL-17RA-HKH-Tb at 5 nM
Compounds were serially diluted in DMSO before receiving an aqueous dilution into a 384 well dilution plate (Greiner #781281), to give a 25% DMSO solution.
IL-17A (10 μL) was added to a black low volume assay plate (Costar #4511) and diluted compound (5 μL) was transferred from the aqueous dilution plate. The cytokine and compound were allowed to incubate for 1 h, then IL-17RA (10 μL) was added. The plates were wrapped in foil and incubated at room temperature for 18-20 h with gentle shaking (<400 rpm) before being read on a Perkin Elmer Envision plate reader (Excitation: 330 nm; Emission 615/645 nm).
The final assay concentrations were IL-17A-AF647 2 nM and IL-17RA-Tb 2 nM, 5% DMSO.

[2] = tested on: IL-17 induced IL-6 release from human dermal fibroblasts; assay: Inhibition of IL-17A induced IL-6 release from dermal fibroblast cell line (HDF cell line assay); type: cell-based
Method: Inhibition of IL-17A Induced IL-6 Release from Dermal Fibroblast Cell Line
The purpose of this assay is to test the neutralising ability to IL-17 proteins, in a human primary cell system.
The resultant IL-6 response was then measured using a homogenous time-resolved FRET kit from Cisbio. The kit utilises two monoclonal antibodies, one labelled with Eu-Cryptate (Donor) and the second with d2 or XL665 (Acceptor).
The ability of a compound to inhibit IL-17 induced IL-6 release from human dermal fibroblasts is measured in this assay.
The TrypLE was neutralised using complete medium (45 mL) and the cells were centrifuged at 300×g for 3 minutes. […] The cells were left for a minimum of three hours, at 37° C./5% CO2, to adhere to the plate.
10 μL from the aqueous dilution plate was transferred to the reagent plate containing 30 μL of the diluted cytokines, to give a 2.5% DMSO solution. The compounds were incubated with the cytokine mixtures for 1 h or 5 h at 37° C. After the incubation, 10 μL was transferred to the assay plate, to give a […] solution, then incubated for 18-20 h at 37° C./5% CO2.

SMILES | IC50 [1] [nM] | IC50 ([2]; Incubation Time 5 h) [nM] | IC50 ([2]; Incubation Time 1 h) [nM]
Cc1nonc1C(=O)N[C@H](c1nc2c(F)c(C(CC(F)F)C(=O)N3CC(F)(F)C3)ccc2[nH]1)C1CCC(F)(F)CC1 (mixture of isomers) [Example 3, N—[(S)-{5-[1-(3,3-Difluoroazetidine-1-carbonyl)-3,3-difluoropropyl]-4-fluoro-1H-benzimidazol-2-yl}(4,4-difluorocyclohexyl)methyl]-4-methyl-1,2,5-oxadiazole-3-carboxamide] | 25.1 | 25.1 | –
CC(C(=O)N1CC(F)(F)C1)c1ccc2[nH]c([C@@H](NC(=O)c3ccnn3C)C3CCC(F)(F)CC3)nc2c1F (mixture of isomers) [Example 20, N—[(S)-{5-[2-(3,3-Difluoroazetidin-1-yl)-1-methyl-2-oxoethyl]-4-fluoro-1H-benzimidazol-2-yl}(4,4-difluorocyclohexyl)methyl]-2-methylpyrazole-3-carboxamide] | 100 | 20 | –
COC(=O)N1CC[C@](C(=O)N2CC(F)(F)C(F)(F)C2)(c2ccc3[nH]c([C@@H](NC(=O)c4nonc4C)C4CCC(F)(F)CC4)nc3c2F)C1 (single isomer, unassigned) [Example 1] | 39.8 | 6.31 | –
COC(=O)N1CC[C@@](C(=O)N2CC(F)(F)C(F)(F)C2)(c2ccc3[nH]c([C@@H](NC(=O)c4nonc4C)C4CCC(F)(F)CC4)nc3c2F)C1 (single isomer, unassigned) [Example 2] | 39.8 | 10 | –
Cc1nonc1C(=O)N[C@H](c1nc2c(F)c([C@H](CC(F)F)C(=O)N3CC(F)(F)C3)ccc2[nH]1)C1CCC(F)(F)CC1 (single isomer, unassigned) [Example 4] | 39.8 | 15.8 | –
Cc1nonc1C(=O)N[C@H](c1nc2c(F)c([C@@H](CC(F)F)C(=O)N3CC(F)(F)C3)ccc2[nH]1)C1CCC(F)(F)CC1 (single isomer, unassigned) [Example 5] | 1580 | – | 1260
C[C@H](C(=O)N1CC(F)(F)C1)c1ccc2[nH]c([C@@H](NC(=O)c3ccnn3C)C3CCC(F)(F)CC3)nc2c1F (single isomer, unassigned) [Example 21] | 25.1 | 15.8 | –
C[C@@H](C(=O)N1CC(F)(F)C1)c1ccc2[nH]c([C@@H](NC(=O)c3ccnn3C)C3CCC(F)(F)CC3)nc2c1F (single isomer, unassigned) [Example 22] | 316 | 316 | –
Cn1nccc1C(=O)N[C@H](c1nc2c(F)c(C(CC(F)F)C(=O)N3CC(F)(F)C3)ccc2[nH]1)C1CCC(F)(F)CC1 (stereo partly drawn) [Example 6, N—[(S)-{5-[1-(3,3-Difluoroazetidine-1-carbonyl)-3,3-difluoropropyl]-4-fluoro-1H-benzimidazol-2-yl}(4,4-difluorocyclohexyl)methyl]-2-methylpyrazole-3-carboxamide] | 79.4 | 25.1 | –
Cc1nonc1C(=O)N[C@H](c1nc2c(F)c(C(CC(F)(F)F)C(=O)N3CC(F)(F)C3)ccc2[nH]1)C1CCC(F)(F)CC1 (stereo partly drawn) [Example 7, N—[(S)-{5-[1-(3,3-Difluoroazetidine-1-carbonyl)-3,3,3-trifluoropropyl]-4-fluoro-1H-benzimidazol-2-yl}(4,4-difluorocyclohexyl)methyl]-4-methyl-1,2,5-oxadiazole-3-carboxamide] | 15.8 | 15.8 | –
Cn1nccc1C(=O)N[C@H](c1nc2c(F)c(C(CC(F)(F)F)C(=O)N3CC(F)(F)C3)ccc2[nH]1)C1CCC(F)(F)CC1 (stereo partly drawn) [Example 8, N—[(S)-{5-[1-(3,3-Difluoroazetidine-1-carbonyl)-3,3,3-trifluoropropyl]-4-fluoro-1H-benzimidazol-2-yl}(4,4-difluorocyclohexyl)methyl]-2-methylpyrazole-3-carboxamide] | 100 | 25.1 | –
